Series [1] addresses T1, Cholinesterase (Equus caballus, UniProt P81908). Briefly: Inhibition of equine serum BuChE using butyrylthiocholine iodide as substrate preincubated for 10 mins followed by substrate addition measured for 5 mins by Ellman's method. Background: DTNB colorimetry detects thiols as they appear.
Series [2] can be described thus: Selectivity index, ratio of IC50 for electric eel AChE to IC50 for equine serum BuChE.
Another series addresses Acetylcholinesterase (Electrophorus electricus, UniProt O42275). Briefly: Inhibition of electric eel AChE using acetylthiocholine iodide as substrate preincubated for 10 mins followed by substrate addition measured for 5 mins by Ellman's method.
The subject of series [3] is Rattus norvegicus. Briefly: Reversal of scopolamine-induced memory impairment in albino Wistar rat assessed as increase in time spent in target quadrant in probe day at 10 mg/kg, ip by Morris water maze test. The format is functional, organism-based.
The subject of series [4] is PC-12. Briefly: Neuroprotection against H2O2-induced cell death in rat PC12 cells assessed as increase in cell viability at 1 uM preincubated for 3 hrs followed by H2O2 addition measured after 12 hrs by MTT assay. The class given is functional, cell-based. In general terms: Formazan colour is commonly taken as a measure of viable cells.
For series [5], the system named is Rattus norvegicus. Briefly: Reversal of scopolamine-induced memory impairment in albino Wistar rat assessed as decrease in mean training period scape latency at 10 mg/kg, ip by Morris water maze test. The format is functional, organism-based.
Series [6] addresses Amyloid-beta precursor protein (Homo sapiens) (UniProt P05067). The series is described as follows: Inhibition of HFIP-pretreated amyloid beta (1 to 42) (unknown origin) self-induced aggregation at 10 uM after 48 hrs by thioflavin-T fluorescence assay relative to control.
The test system of series [7] is Rattus norvegicus. The series is described as follows: Reversal of scopolamine-induced memory impairment in albino Wistar rat assessed as decrease in mean training period traveled distance to find platform at 10 mg/kg, ip by Morris water maze test. The format is functional, organism-based.
Series [8] addresses T1, Cholinesterase. The series is described as follows: Mixed-type inhibition of equine serum BuChE using varying levels of butyrylthiocholine iodide as substrate preincubated for 10 mins followed by substrate addition measured for 5 mins by Lineweaver-Burk plot analysis.
For series [9], the system named is PC-12. The series is described as follows: Neuroprotection against H2O2-induced cell death in rat PC12 cells assessed as cell viability at 10 uM preincubated for 3 hrs followed by H2O2 addition measured after 12 hrs by MTT assay relative to control. The format is functional. The settings on record: read-out: Activity.
The target of series [10] is Cholinesterase (Equus caballus) (UniProt P81908). Briefly: Potency index, ratio of donepezile IC50 to compound IC50 for inhibition of equine serum BuChE.
Sequence of Cholinesterase (Equus caballus) (P81908 whole entry): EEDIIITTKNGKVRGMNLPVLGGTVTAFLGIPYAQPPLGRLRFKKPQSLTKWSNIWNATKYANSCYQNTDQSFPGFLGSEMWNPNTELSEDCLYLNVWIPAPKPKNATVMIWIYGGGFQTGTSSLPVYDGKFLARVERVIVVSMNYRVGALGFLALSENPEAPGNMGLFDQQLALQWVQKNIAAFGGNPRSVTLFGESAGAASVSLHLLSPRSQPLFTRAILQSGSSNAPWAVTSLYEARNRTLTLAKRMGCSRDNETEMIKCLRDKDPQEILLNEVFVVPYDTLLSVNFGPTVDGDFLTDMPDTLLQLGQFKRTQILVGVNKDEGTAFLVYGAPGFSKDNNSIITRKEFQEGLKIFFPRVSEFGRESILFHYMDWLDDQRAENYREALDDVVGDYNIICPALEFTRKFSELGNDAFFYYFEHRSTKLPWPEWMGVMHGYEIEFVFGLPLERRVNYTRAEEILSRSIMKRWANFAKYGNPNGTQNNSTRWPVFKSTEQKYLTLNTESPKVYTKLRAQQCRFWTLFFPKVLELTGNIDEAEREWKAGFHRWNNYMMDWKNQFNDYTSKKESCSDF
The target is the same in series [11]. Briefly: Potency index, ratio of galantamine IC50 to compound IC50 for inhibition of equine serum BuChE.
In series [12] the test system is Rattus norvegicus. Briefly: Reversal of scopolamine-induced memory impairment in albino Wistar rat assessed as effect on swimming speed at 5 to 20 mg/kg, ip by Morris water maze test. The format is functional, organism-based.
Series [13] relates to PC-12. Briefly: Cytotoxicity against rat PC12 cells assessed as reduction in cell viability at 100 uM by MTT assay. The format is cell-based. The conditions noted are these: pc-12, 100 µM.
Series [14] deals with Rattus norvegicus. The series is described as follows: Reversal of scopolamine-induced memory impairment in albino Wistar rat assessed as decrease in mean training period traveled distance to find platform at 2.5 mg/kg, ip by Morris water maze test. The class given is functional, organism-based.
The test system of series [15] is Rattus norvegicus. Briefly: Reversal of scopolamine-induced memory impairment in albino Wistar rat assessed as increase in time spent in target quadrant in probe day at 2.5 mg/kg, ip by Morris water maze test. The format is functional, organism-based.
Series [16] deals with Rattus norvegicus. Briefly: Reversal of scopolamine-induced memory impairment in albino Wistar rat assessed as effect on swimming speed at 2.5 mg/kg, ip by Morris water maze test. The format is functional, organism-based.

Calls of active or inactive are those of the source. The calls are words filed in the database; no cut-off is given here. Where only a bound is given, the exact number is not on record here.

T1 sequence (P81908 whole entry): as above
Sequence of Acetylcholinesterase (O42275 whole entry): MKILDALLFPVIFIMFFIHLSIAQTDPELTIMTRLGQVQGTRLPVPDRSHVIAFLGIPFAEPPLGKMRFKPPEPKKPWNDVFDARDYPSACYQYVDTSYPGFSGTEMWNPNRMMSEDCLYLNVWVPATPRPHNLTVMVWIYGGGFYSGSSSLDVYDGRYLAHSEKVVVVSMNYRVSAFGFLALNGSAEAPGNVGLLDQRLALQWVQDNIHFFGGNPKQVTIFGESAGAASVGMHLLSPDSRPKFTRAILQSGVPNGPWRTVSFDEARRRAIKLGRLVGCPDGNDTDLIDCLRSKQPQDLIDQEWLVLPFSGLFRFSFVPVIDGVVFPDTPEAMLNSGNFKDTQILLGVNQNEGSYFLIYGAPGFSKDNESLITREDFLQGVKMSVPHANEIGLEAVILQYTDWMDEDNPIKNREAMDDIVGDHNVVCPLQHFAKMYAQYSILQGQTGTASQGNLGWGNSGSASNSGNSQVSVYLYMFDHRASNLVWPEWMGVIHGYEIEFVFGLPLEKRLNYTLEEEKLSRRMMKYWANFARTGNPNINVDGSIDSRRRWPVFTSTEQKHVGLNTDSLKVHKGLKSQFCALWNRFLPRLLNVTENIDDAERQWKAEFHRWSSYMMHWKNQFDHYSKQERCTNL
Sequence of Amyloid-beta precursor protein (Homo sapiens) (P05067 whole entry): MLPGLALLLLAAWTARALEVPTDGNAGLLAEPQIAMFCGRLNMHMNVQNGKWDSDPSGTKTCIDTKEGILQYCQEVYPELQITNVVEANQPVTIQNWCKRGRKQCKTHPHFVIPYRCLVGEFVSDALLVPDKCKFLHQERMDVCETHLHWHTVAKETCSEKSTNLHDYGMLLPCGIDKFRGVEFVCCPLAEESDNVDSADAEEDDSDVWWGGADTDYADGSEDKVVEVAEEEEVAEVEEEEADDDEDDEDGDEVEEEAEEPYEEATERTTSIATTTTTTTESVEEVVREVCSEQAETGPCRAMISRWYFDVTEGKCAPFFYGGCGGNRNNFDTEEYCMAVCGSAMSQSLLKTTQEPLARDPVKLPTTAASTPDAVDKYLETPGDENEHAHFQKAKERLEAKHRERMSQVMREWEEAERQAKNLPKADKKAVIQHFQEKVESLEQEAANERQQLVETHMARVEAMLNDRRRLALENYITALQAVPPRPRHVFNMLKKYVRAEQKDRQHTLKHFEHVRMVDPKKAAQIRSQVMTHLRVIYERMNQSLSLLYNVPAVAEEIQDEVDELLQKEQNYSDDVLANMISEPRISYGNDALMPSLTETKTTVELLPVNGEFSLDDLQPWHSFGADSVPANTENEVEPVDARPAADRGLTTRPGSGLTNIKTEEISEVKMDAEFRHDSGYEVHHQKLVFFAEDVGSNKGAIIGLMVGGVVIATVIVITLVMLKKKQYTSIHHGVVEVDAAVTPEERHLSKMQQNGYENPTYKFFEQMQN

As usually defined, the IC50 is the point on the concentration scale where inhibition reaches its midpoint. A lower IC50 goes with higher potency. Take `Fc1ccccc1C[n+]1cccc(Cn2c3ccccc3c3ccccc32)c1`: the IC50 on Cholinesterase [1] was 0.37 µM; at Acetylcholinesterase it was more than 100 µM. In addition, in series [2], the Ratio IC50 was more than 270.

Take `Cc1ccc(C[n+]2ccc(Cn3c4ccccc4c4ccccc43)cc2)cc1`: the IC50 was determined as 0.81 µM against Cholinesterase [1] and 15.6 µM at Acetylcholinesterase. Further, the Ratio IC50 in [2] is 19.3.

On to `Clc1ccccc1C[n+]1ccc(Cn2c3ccccc3c3ccccc32)cc1`, for which the IC50 was 0.59 µM at Cholinesterase [1] and 6.8 µM against Acetylcholinesterase. The Ratio IC50 in [2] came out at 11.5.

Take `Fc1cccc(C[n+]2ccc(Cn3c4ccccc4c4ccccc43)cc2)c1`: the values for the IC50 against Cholinesterase [1] and on Acetylcholinesterase were 1.1 µM and 21.3 µM, respectively. Besides, in series [2], the Ratio IC50 turned out to be 19.3.

Turning to `Clc1cccc(C[n+]2cccc(Cn3c4ccccc4c4ccccc43)c2)c1`, the IC50 is 0.16 µM against Cholinesterase [1] and 32.8 µM at Acetylcholinesterase. Further, the Ratio IC50 in series [2] worked out at 205.

As to `Clc1ccccc1C[n+]1cccc(Cn2c3ccccc3c3ccccc32)c1`, the IC50 against Cholinesterase [1] was 0.38 µM; on Acetylcholinesterase, more than 100 µM. In addition, the Ratio IC50 in [2] is more than 263.

The term inhibition denotes the percentage by which the read-out fell short of the control. The Ki is the dissociation constant of the complex between target and ligand, obtained from inhibition or displacement. A low value points to a stronger hold on the target. Consider `Clc1ccc(C[n+]2cccc(Cn3c4ccccc4c4ccccc43)c2)cc1.[Cl-]`, for which the IC50 worked out at 0.073 µM at Cholinesterase [1] and 20 µM on Acetylcholinesterase. Further, the result in the series with Rattus norvegicus [3], in the series on Rattus norvegicus [5] and with Rattus norvegicus [7] was Active. In addition, the result in the series with PC-12 [4] and in the series with Rattus norvegicus [12] was inactive. In series [6], the inhibition was determined as 49.9%. In addition, on Cholinesterase [8], the Ki is 0.09 µM. For the same compound, in the series with PC-12 [9], the viability at 10 µM is 66%. The Ratio IC50 came out at 274 in series [2], 4.8 in series [10] and 129 in series [11]. For the same compound, the Activity result in the series on PC-12 [13] is recorded as “Toxic”.

For the compound `Cc1ccccc1C[n+]1ccc(Cn2c3ccccc3c3ccccc32)cc1`, the IC50 against Cholinesterase [1] came to 0.35 µM; against Acetylcholinesterase, 11.9 µM. Moreover, the Ratio IC50 in series [2] is 34.

Turning to `Clc1cccc(C[n+]2ccc(Cn3c4ccccc4c4ccccc43)cc2)c1`, the values for the IC50 at Cholinesterase [1] and against Acetylcholinesterase were 0.35 µM and 9.3 µM, respectively. The Ratio IC50 in [2] was 26.6.

In the case of `Fc1ccc(C[n+]2ccc(Cn3c4ccccc4c4ccccc43)cc2)cc1`, the IC50 at Cholinesterase [1] turned out to be 0.89 µM; against Acetylcholinesterase, 18.8 µM. The Ratio IC50 in series [2] was 21.1.

With `COc1cc2c(cc1OC)C(=O)C(CC1CCN(Cc3ccccc3)CC1)C2` (stereo not given), the result in the series on Rattus norvegicus [14] and with Rattus norvegicus [15] was Active. The result in the series with Rattus norvegicus [16] was inactive.

In the case of `Fc1ccc(C[n+]2cccc(Cn3c4ccccc4c4ccccc43)c2)cc1`, the IC50 is 0.13 µM on Cholinesterase [1] and 29.4 µM against Acetylcholinesterase. Also, the Ratio IC50 in series [2] came to 225.

Consider `c1ccc(C[n+]2cccc(Cn3c4ccccc4c4ccccc43)c2)cc1`, for which the IC50 worked out at 0.27 µM at Cholinesterase [1] and 61.9 µM at Acetylcholinesterase. In addition, in [2], the Ratio IC50 was found to be 229.

`Nc1c2c(nc3ccccc13)CCCC2`: in series [6], the inhibition turned out to be 7.7%.

Consider `Fc1cccc(C[n+]2cccc(Cn3c4ccccc4c4ccccc43)c2)c1`, for which the IC50 against Cholinesterase [1] is 0.75 µM; against Acetylcholinesterase, more than 100 µM. Moreover, the Ratio IC50 in series [2] was more than 133.

Regarding `Cc1cccc(C[n+]2ccc(Cn3c4ccccc4c4ccccc43)cc2)c1`, the IC50 at Cholinesterase [1] amounted to 0.73 µM; against Acetylcholinesterase, 17.5 µM. Also, the Ratio IC50 in series [2] turned out to be 24.

In the case of `Cc1ccccc1C[n+]1cccc(Cn2c3ccccc3c3ccccc32)c1`, the figures for the IC50 against Cholinesterase [1] and on Acetylcholinesterase were 0.22 µM and 52.5 µM, respectively. Also, the Ratio IC50 in series [2] worked out at 239.

With `c1ccc(C[n+]2ccc(Cn3c4ccccc4c4ccccc43)cc2)cc1`, the IC50 amounted to 0.58 µM against Cholinesterase [1] and 12.8 µM on Acetylcholinesterase. Moreover, the Ratio IC50 in series [2] came out at 22.1.

Regarding `Fc1ccccc1C[n+]1ccc(Cn2c3ccccc3c3ccccc32)cc1`, the IC50 on Cholinesterase [1] stood at 0.67 µM; against Acetylcholinesterase it was 12.7 µM. In addition, in series [2], the Ratio IC50 came out at 18.9.

Consider `Clc1ccc(C[n+]2ccc(Cn3c4ccccc4c4ccccc43)cc2)cc1`, for which the values for the IC50 at Cholinesterase [1] and at Acetylcholinesterase were 1.6 µM and 19 µM, respectively. In addition, in [2], the Ratio IC50 came out at 11.9.

With `Cc1ccc(C[n+]2cccc(Cn3c4ccccc4c4ccccc43)c2)cc1`, the IC50 against Cholinesterase [1] is 0.11 µM; against Acetylcholinesterase, 23.1 µM. Further, in series [2], the Ratio IC50 was determined as 210.

`Cc1cccc(C[n+]2cccc(Cn3c4ccccc4c4ccccc43)c2)c1`: the IC50 on Cholinesterase [1] stood at 0.28 µM; against Acetylcholinesterase, 66 µM. In addition, the Ratio IC50 in series [2] worked out at 236.

Values taken from ChEMBL document CHEMBL4229561, “Design, synthesis, and biological evaluation of selective and potent Carbazole-based butyrylcholinesterase inhibitors” (Bioorg Med Chem, 2018).
